Test results from patent US5663295A, “Opioid peptides” (Biomeasure Inc., priority 1994, dated 1997).

Key:
κ receptor = test: In vitro receptor binding, κ receptor, radioligand U69,593; set-up: species or system guinea-pig or rat; conditions: forebrain membranes, 25° C., 60 min
Method: (§1) The following procedure was used to determine the ability of various opioid peptides to inhibit binding at opioid receptors. Crude membranes were prepared by homogenization of guinea-pig or rat forebrain samples in 20 ml of ice-cold 50 mM Tris-HCl with a Brinkman Polytron (setting 6, 15 sec.). Buffer was added to obtain a final volume of 40 ml, and the homogenate centrifuged in a Sorval SS-34 rotor at 39,000 g for 10 min. at 0°-4° C. The resulting supernatant was decanted and discarded. The pellet was rehomogenized in ice-cold buffer, pre-incubated at 37° C. for 45 min., diluted, and centrifuged as before. The final pellet was resuspended in 50 mM Tris HCl and held on ice for the receptor binding assay.
(§2) Aliquots of the washed membrane preparation (described above) were incubated in 50 mM Tris HCl at a total volume of 2.0 ml at 25° C. with an opioid receptor ligand (see below) and various concentrations of the unlabeled test compounds. Mu and kappa receptor assays were incubated for 60 minutes. […] At the end of the incubation periods, the assays were terminated by rapid filtration though Whatman GF/B glass fiber filters, and the bound radioactivity trapped on the filters counted by liquid scintillation spectrometry. For each of the three receptor subtypes, specific binding was calculated as the total radioligand bound minus that bound in the presence of 1000 nM levallorphan. […]

μ receptor = test: In vitro receptor binding, μ receptor, radioligand DAGO; set-up: species or system guinea-pig or rat; conditions: forebrain membranes, 25° C., 60 min
Method: as §1, §2

δ receptor = test: In vitro receptor binding, δ receptor, radioligand DPPE; set-up: species or system guinea-pig or rat; conditions: forebrain membranes, 25° C., 40 min
Method: as §1, §2

Human NSLC A549 = test: Subcutaneous tumor assay, human non-small cell lung cancer A549 xenografts; type: in vivo, athymic nude mice
Method: Table 5 compares the antitumor activity of an opioid BIM-38009 versus methadone. A subcutaneous tumor assay was used in which xenografts of the human non-small cell lung cancer were implanted s.c. in athymic nude mice. Test compounds were administered s.c. or i.p., twice daily, from day 4 post tumor implantation to day 35. The results are reported as means±s.e.m. on 8 animals per group. For structure of BIM-38009, see above.

C[C@@H](NC(=O)[C@@H](N)Cc1ccc(O)cc1)C(=O)NCC(=O)N[C@@H](CCc1ccccc1)C(N)=O [BIM-38046, tyrosyl-D-alanyl-glycyl-homophenylalanine amide]
Ki (κ receptor): 849 nM
Ki (μ receptor): 2.92 ± 1.12 nM
Ki (δ receptor): 72.7 nM

CCC(=O)C(CC(C)N(C)C)(c1ccccc1)c1ccccc1 (centres unmarked) [Methadone]
Tumor Weight (mg) (Day 34) (Human NSLC A549; A549 xenograft s.c., treatment days 4-35, mean ± s.e.m., 8 animals per group): 337 ± 57 mg
& T/C (Human NSLC A549; A549 xenograft, tumor weight Day 34, treated versus control): 110
